Test results published in patent US4522815A, “Anthracycline glycosides” (priority 1982, dated 1985).
In brackets after ≈: the same amount, converted by molar mass. Where two headings read alike, the source gives them in different places.

Columns and labels:
HeLa cells = test: Colony inhibition test against HeLa cells in vitro (cloning efficiency), treatment for 24 hrs; type: cell-based; conditions: for activity at 0.0015 µg/mL: 1.5 ng/ml; for activity at 0.0062 µg/mL: 6.2 ng/ml; for activity at 0.025 µg/mL: 25 ng/ml; for activity at 0.1 µg/mL: 100 ng/ml; for IC50: HeLa colony inhibition; for activity at 0.0125 µg/mL: 12.5 ng/ml
ascitic P388 leukemia = test: Antitumor activity against ascitic P388 leukemia in CDF-1 mice, treatment i.p. on day 1; type: in vivo
Procedure: The primary screening […] was carried out in CDF-1 mice bearing ascitic P388 leukemia (10^6 cells/mouse). Both IIa and IIc were suspended in 10%. Tween 80 and injected intraperitoneally.
Results of the primary screening "in vivo" carried out in CDF-1 mice bearing P388 ascitic leukemia and treated i.p. the day after tumor transplantation, are reported in Table 5.
Antitumor activity against ascitic P388 leukekemia.
(§1) Treatment i.p. on day 1.
^a median survival time; % over untreated controls
^b long term survivors (≥ 60 days)
^c evaluated on the basis of autoptic findings on dead mice
(§2) ^d data of two experiments (range)
^e date of three experiments (range)
Antitumor activity of Ib and Id against ascitic P388
as §1

Gross leukemia [1] = test: Oral activity against i.v. transplanted Gross leukemia (i.v. comparators); type: in vivo, C3H/Me mice; conditions: for T/C %, median survival time / Toxic deaths: Table 7
Description: (§3) Results of studies performed in C3H/Me mice carrying i.v. transplanted Gross leukemia and treated i.v. the day after tumor transplantation, are reported in Table 6. […] The compounds Ib and Id were further investigated for oral activity on Gross leukemic transplanted i.v., in comparison with DNR, DX given i.v. and 4-dm DNR given oral route.
Oral activity of Ib and Id against Gross leukemia
^a days after transplantation
as §2

Gross leukemia [2] = test: Antitumor activity against i.v. transplanted Gross leukemia in C3H/Me mice, treatment i.v. on day 1; type: in vivo; conditions: for T/C, median survival time; % over untreated controls / Toxic deaths: Table 6
Description: as §3
Antitumor activity against i.v. Gross leukemia.
Treatment i.v. on day 1.

[3] = Homo sapiens, HeLa, Table 1, 24 hrs, read-out: No of colonies, % of untreated controls
[4] = Table 2, 30 mg/kg i.p. day 1, two experiments
[5] = Homo sapiens, HeLa, Table 3, 24 hrs, read-out: No of colonies, % of untreated controls
[6] = Homo sapiens, HeLa, 24 h, read-out: No of colonies, % of untreated controls, Table 1, 24 hrs
[7] = Homo sapiens, HeLa, 24 h, read-out: No of colonies, % of untreated controls, Table 3, 24 hrs
[8] = Table 2, 4.4 mg/kg i.p. day 1, two experiments
[9] = Table 2, 6.6 mg/kg i.p. day 1, two (DNR) or three (DX) experiments
[10] = Table 2, 10 mg/kg i.p. day 1, three experiments
[11] = Table 5, 4.4 mg/kg i.p. day 1, DNR: two experiments

## COc1cccc2c1C(=O)c1c(O)c3c(c(O)c1C2=O)C[C@@](O)(C(=O)CO)C[C@@H]3O[C@H]1C=C[C@@H](O)[C@H](C)O1 [Compound IIc, 7-0-(2,3,6-trideoxy-α-L-erythro-hex-2-enopyranosyl)-adriamycinone]
HeLa cells; HeLa cells cloning efficiency, vs DX
  times less cytotoxic than DX: about 5 times
HeLa cells; [3]
  activity at 0.0015 µg/mL: 86%
  activity at 0.0062 µg/mL: 68%
  activity at 0.025 µg/mL: 65%
  activity at 0.1 µg/mL: 33%
HeLa cells; Homo sapiens, HeLa, Table 1, 400 ng/ml, 24 hrs, read-out: No of colonies, % of untreated controls
  activity at 0.4 µg/mL: 4%
HeLa cells; Homo sapiens, Table 1, 24 hrs, read-out: ID50 (the source's name)
  IC50: ~50 ng/mL (≈ 0.095 µM)
Ascitic P388 leukemia; Table 2, 17.6 mg/kg i.p. day 1
  LTS, long term survivors (≥ 60 days): 0/8
  T/C, median survival time; % over untreated controls: 118%
  Toxic deaths (autoptic findings on dead mice): 0/8
Ascitic P388 leukemia; Table 2, 23 mg/kg i.p. day 1
  LTS, long term survivors (≥ 60 days): 0/7
  T/C, median survival time; % over untreated controls: 127%
  Toxic deaths (autoptic findings on dead mice): 0/7
Ascitic P388 leukemia; [4]
  LTS, long term survivors (≥ 60 days): 0/17
  Toxic deaths (autoptic findings on dead mice): 0/17
Ascitic P388 leukemia; Table 2, 30 mg/kg i.p. day 1, two experiments (range)
  T/C, median survival time; % over untreated controls: 125-136%
Ascitic P388 leukemia; Table 2, 45 mg/kg i.p. day 1
  LTS, long term survivors (≥ 60 days): 0/10
  T/C, median survival time; % over untreated controls: 130%
  Toxic deaths (autoptic findings on dead mice): 0/10
Ascitic P388 leukemia; Table 2, 67.5 mg/kg i.p. day 1
  LTS, long term survivors (≥ 60 days): 0/10
  T/C, median survival time; % over untreated controls: 140%
  Toxic deaths (autoptic findings on dead mice): 0/10
Ascitic P388 leukemia; Table 2, 100 mg/kg i.p. day 1
  LTS, long term survivors (≥ 60 days): 0/7
  T/C, median survival time; % over untreated controls: 150%
  Toxic deaths (autoptic findings on dead mice): 0/7
Ascitic P388 leukemia; ascitic P388, i.p.
  toxicity and potency vs parent drugs DNR and DX: less toxic and potent than the parent drugs DNR and DX
Ascitic P388 leukemia; i.p. day 1, IIa: two doses tested incl. Mx TD
  antitumor activity on P388 ascitic leukemia: a certain antitumor activity, which is lower than that of DX

## C[C@@H]1O[C@@H](O[C@H]2C[C@](O)(C(=O)CO)Cc3c(O)c4c(c(O)c32)C(=O)c2ccccc2C4=O)C[C@H](O)[C@H]1O [Compound Id, 4-demethoxy-7-0-(2,6-dideoxy-α-L-arabino-hexopyranosyl)-adriamycinone]
HeLa cells; HeLa cells cloning efficiency
  cytotoxicity in comparison with DX: as cytotoxic as DX
HeLa cells; [5]
  activity at 0.0015 µg/mL: 106%
  activity at 0.0062 µg/mL: 59%
  activity at 0.025 µg/mL: 0%
  activity at 0.1 µg/mL: 0%
HeLa cells; Homo sapiens, Table 3, 24 hrs, read-out: ID50 (the source's name)
  IC50: ~7 ng/mL (≈ 0.0136 µM)
Gross leukemia [1]; oral +1, 1.2 mg/kg
  T/C %, median survival time: 171%
  Toxic deaths: 0/9
Gross leukemia [1]; oral +1, 2.1 mg/kg
  T/C %, median survival time: 185%
  Toxic deaths: 0/8
Gross leukemia [1]; oral +1, 3.8 mg/kg
  T/C %, median survival time: 214%
  Toxic deaths: 3/8
Gross leukemia [1]; oral days 1,2,3, 0.48 mg/kg
  T/C %, median survival time: 183%
  Toxic deaths: 0/10
Gross leukemia [1]; oral days 1,2,3, 0.62 mg/kg
  T/C %, median survival time: 208%
  Toxic deaths: 0/10
Gross leukemia [1]; oral days 1,2,3, 0.8 mg/kg, two experiments
  Toxic deaths: 2/20
Gross leukemia [1]; oral days 1,2,3, 0.8 mg/kg, two experiments (range)
  T/C %, median survival time: 233-258%
Gross leukemia [1]; oral day 1, Gross leukemia, Id at the Mx TD vs DX i.v.
  antitumor activity given orally at day 1: less active than DX i.v.
Gross leukemia [1]; oral days 1,2,3, vs DX i.v.
  antitumor activity given orally days 1,2,3: higher than that of DX given i.v.
Gross leukemia [2]; Gross leukemia, i.v. day 1
  antitumor activity, comparison of the Mx TD: good antitumor activity, which is of the same order of magnitude as that of DX
  toxicity and potency vs parent compounds: more toxic and more potent than the parent compounds
Gross leukemia [2]; 1.2 mg/kg i.v. day 1
  T/C, median survival time; % over untreated controls: 171%
  Toxic deaths: 1/10
Gross leukemia [2]; 2.16 mg/kg i.v. day 1
  T/C, median survival time; % over untreated controls: 200%
  Toxic deaths: 1/10
Gross leukemia [2]; 3.8 mg/kg i.v. day 1
  T/C, median survival time; % over untreated controls: 114%
  Toxic deaths: 5/9
Ascitic P388 leukemia; Table 5, 1.12 mg/kg i.p. day 1
  LTS, long term survivors (≥ 60 days): 0/10
  T/C, median survival time; % over untreated controls: 170%
  Toxic deaths (autoptic findings on dead mice): 0/10
Ascitic P388 leukemia; Table 5, 1.68 mg/kg i.p. day 1
  LTS, long term survivors (≥ 60 days): 0/10
  T/C, median survival time; % over untreated controls: 185%
  Toxic deaths (autoptic findings on dead mice): 0/10
Ascitic P388 leukemia; Table 5, 2.53 mg/kg i.p. day 1
  LTS, long term survivors (≥ 60 days): 1/10
  T/C, median survival time; % over untreated controls: 230%
  Toxic deaths (autoptic findings on dead mice): 2/10
Ascitic P388 leukemia; ascitic P388, i.p. day 1
  times more potent than DX: about 5 times
Ascitic P388 leukemia; vs DX
  antileukemia activity against P388 leukemia: good but lower than that of DX

## COc1cccc2c1C(=O)c1c(O)c3c(c(O)c1C2=O)C[C@@](O)(C(=O)CO)C[C@@H]3O[C@H]1C[C@H](N)[C@H](O)[C@H](C)O1 [DX, doxorubicin, reference compound]
HeLa cells; Homo sapiens, HeLa, 24 h, read-out: ID50, Table 1, 24 hrs
  IC50: ~10 ng/mL (≈ 0.0184 µM)
HeLa cells; Homo sapiens, HeLa, 24 h, read-out: ID50, Table 3, 24 hrs
  IC50: ~7.5 ng/mL (≈ 0.0138 µM)
HeLa cells; [6]
  activity at 0.0062 µg/mL: 69%
  activity at 0.0125 µg/mL: 40%
  activity at 0.025 µg/mL: 24%
HeLa cells; [7]
  activity at 0.0062 µg/mL: 59%
  activity at 0.0125 µg/mL: 28%
  activity at 0.025 µg/mL: 0%
Gross leukemia [1]; i.v. +1, 10 mg/kg, two experiments
  Toxic deaths: 1/20
Gross leukemia [1]; i.v. +1, 10 mg/kg, two experiments (range)
  T/C %, median survival time: 171-171%
Gross leukemia [1]; i.v. +1, 13 mg/kg, two experiments
  Toxic deaths: 1/20
Gross leukemia [1]; i.v. +1, 13 mg/kg, two experiments (range)
  T/C %, median survival time: 200-200%
Gross leukemia [1]; i.v. +1, 16.9 mg/kg, two experiments
  Toxic deaths: 3/13
Gross leukemia [1]; i.v. +1, 16.9 mg/kg, two experiments (range)
  T/C %, median survival time: 200-207%
Gross leukemia [2]; 10 mg/kg i.v. day 1
  T/C, median survival time; % over untreated controls: 171%
  Toxic deaths: 0/10
Gross leukemia [2]; 13 mg/kg i.v. day 1
  T/C, median survival time; % over untreated controls: 200%
  Toxic deaths: 0/10
Gross leukemia [2]; 16.9 mg/kg i.v. day 1
  T/C, median survival time; % over untreated controls: 207%
  Toxic deaths: 3/10
Ascitic P388 leukemia; Table 2, 4.4 mg/kg i.p. day 1, data of two experiments (range)
  T/C, median survival time; % over untreated controls: 220-227%
Ascitic P388 leukemia; [8]
  LTS, long term survivors (≥ 60 days): 2/18
  Toxic deaths (autoptic findings on dead mice): 0/18
Ascitic P388 leukemia; Table 2, 6.6 mg/kg i.p. day 1, range of two (DNR) or three (DX) experiments
  T/C, median survival time; % over untreated controls: 227-305%
Ascitic P388 leukemia; [9]
  LTS, long term survivors (≥ 60 days): 2/26
  Toxic deaths (autoptic findings on dead mice): 0/26
Ascitic P388 leukemia; [10]
  LTS, long term survivors (≥ 60 days): 7/26
  Toxic deaths (autoptic findings on dead mice): 3/26
Ascitic P388 leukemia; [11]
  LTS, long term survivors (≥ 60 days): 1/10
  Toxic deaths (autoptic findings on dead mice): 0/10
Ascitic P388 leukemia; Table 5, 4.4 mg/kg i.p. day 1, DNR: two experiments (range)
  T/C, median survival time; % over untreated controls: 220%
Ascitic P388 leukemia; Table 5, 6.6 mg/kg i.p. day 1
  LTS, long term survivors (≥ 60 days): 0/10
  T/C, median survival time; % over untreated controls: 305%
  Toxic deaths (autoptic findings on dead mice): 0/10
Ascitic P388 leukemia; Table 5, 10 mg/kg i.p. day 1
  LTS, long term survivors (≥ 60 days): 5/10
  T/C, median survival time; % over untreated controls: > 610%
  Toxic deaths (autoptic findings on dead mice): 0/10
